From US20250387417A1, “CANNABINOID DERIVATIVES AND COMPOSITIONS COMPRISING SAME” (CANNASOUL ANALYTICS LTD., priority 2022, published 2025)

Tested on: MCP-1 secretion
Assay: Acute inflammation: LPS-induced MCP-1 secretion in human colon epithelial cells (ELISA)
Assay type: cell-based
Settings: 10 ng/ml LPS, 24 hours, ELISA of supernatants, FIG. 1
Procedure: The efficacy of the compounds according to certain embodiments of the present invention in the treatment of IBD was assessed. Human colon epithelial cells were thawed and cultured in suitable media at a final concentration of 4×10^5 cells per mL. The cells were then cultured and tested in triplicates for 48 hours. Following incubation, controls and test compounds were diluted in culture media to achieve the final assay concentration. Cells were treated with 10 ng/ml LPS with or without positive control/test compounds and incubated for 24 hours. Rosiglitazone at 7.2 μg/ml served as a positive control. Following incubation, the supernatants were collected, and the secretion levels of MCP-1 were measured by ELISA (R&D systems). Optical density was determined by ‘CLARIOStar-plus’® plate-reader. The chemokine concentration (pg/ml) was calculated using a standard curve.

Q: With `CCCCCCc1cc(O)c(C/C=C(\C)CCC=C(C)C)c(O)c1OC(C)=O` [(E)-3-(3,7-dimethylocta-2,6-dien-1-yl)-6-hexyl-2,4-dihydroxyphenyl acetate] as the compound, how does the “inhibition of MCP-1 secretion” value read?
A: Its value is “effectively inhibited MCP-1 secretion in a statistically significant manner”.

Q: What does the source list for `CCCCCc1cc(O)c(CC=C(C)C)c(O)c1OC(C)=O` [Compound 15]?
A: inhibition of MCP-1 secretion: effectively inhibited MCP-1 secretion in a statistically significant manner; inhibitory effect on MCP-1 secretion compared among the test compounds: most pronounced inhibitory effect on MCP-1 secretion

Q: With `CCCCCc1cc(O)c(C2C=C(C)CCC2C(C)(C)O)c(O)c1OC(C)=O` (stereo not shown) [Compound 17] as the compound, how does the “inhibition of MCP-1 secretion” value read?
A: Its value is “effectively inhibited MCP-1 secretion in a statistically significant manner”.
